{"source": "ChEMBL document CHEMBL4483862", "about": "“Open-source discovery of chemical leads for next-generation chemoprotective antimalarials” (2018)", "tested_on": "Plasmodium berghei", "test": "Luciferase/luciferin-expressing antifolate-resistant parasites were used to infect a culture of HepG2 cells that were pre-incubated with compounds. Infected hepatocytes emit light due to the luciferase reaction. Assay results are presented as the percent inhibition of light emission compared to control. […]", "assay_type": "functional", "details": "sporozoite; for IC50: read-out: LUCIFERASE INFECTION ASSAY - IC50; for IC90: read-out: LUCIFERASE INFECTION ASSAY - IC90"}
{"smiles": "C(=C(c1nc2ccccc2s1)c1nc2ccccc2s1)c1ccc(N2CCOCC2)cc1", "values": [{"measurement": "IC50", "result": 0.749, "unit": "µM"}, {"measurement": "IC90", "result": 3.63, "unit": "µM"}]}
{"smiles": "N#Cc1ccc(Cl)cc1/N=C/C(Br)=C/c1ccccc1", "values": [{"measurement": "IC50", "result": "> 10", "unit": "µM"}, {"measurement": "IC90", "result": "> 10", "unit": "µM"}]}
{"smiles": "Cc1ccc2nc(-c3ccc(NC(=O)COC(=O)c4ccccc4C(=O)c4ccccc4)cc3)sc2c1", "values": [{"measurement": "IC50", "result": "> 10", "unit": "µM"}, {"measurement": "IC90", "result": "> 10", "unit": "µM"}]}
{"smiles": "Cc1ccc(S(=O)(=O)NC(=O)c2c(C(=O)NS(=O)(=O)c3ccc(C)cc3)c(C)n(-c3ccc(N(C)C)cc3)c2C)cc1", "values": [{"measurement": "IC50", "result": "> 10", "unit": "µM"}, {"measurement": "IC90", "result": "> 10", "unit": "µM"}]}
{"smiles": "Cc1ccc(NC(=O)/C(=N/N)c2c(-c3ccccc3)nc3ccccn23)c(Br)c1", "values": [{"measurement": "IC50", "result": "> 10", "unit": "µM"}, {"measurement": "IC90", "result": "> 10", "unit": "µM"}]}
{"smiles": "O=C1COc2ccc(-c3cs/c(=N\\c4ccc(OC(F)F)cc4)n3Cc3ccco3)cc2N1", "values": [{"measurement": "IC50", "result": "> 10", "unit": "µM"}, {"measurement": "IC90", "result": "> 10", "unit": "µM"}]}
{"smiles": "Cc1ccc2c(c1)C1CN(C)CCC1N2C(=O)CCCOc1ccc(Cl)cc1Cl", "note": "(configuration not stated)", "values": [{"measurement": "IC50", "result": "> 10", "unit": "µM"}, {"measurement": "IC90", "result": "> 10", "unit": "µM"}]}
{"smiles": "O=C(Nc1cccc(S(=O)(=O)NC2=NCCCCC2)c1)c1cncc(Br)c1", "values": [{"measurement": "IC50", "result": "> 10", "unit": "µM"}, {"measurement": "IC90", "result": "> 10", "unit": "µM"}]}
{"smiles": "CN1C(=O)NC(c2ccccc2C(F)(F)F)C(C(=O)c2cccs2)C1(O)C(F)(F)F", "note": "(configuration not stated)", "values": [{"measurement": "IC50", "result": "> 10", "unit": "µM"}, {"measurement": "IC90", "result": "> 10", "unit": "µM"}]}
{"smiles": "C/C(=N\\c1cc(C(F)(F)F)ccc1Cl)Nc1ccc(C)cc1", "values": [{"measurement": "IC50", "result": "> 10", "unit": "µM"}, {"measurement": "IC90", "result": "> 10", "unit": "µM"}]}
{"smiles": "CC1CCCCC1NC(=O)/C(C#N)=C/c1ccc(OC(F)F)cc1OC(F)F", "note": "(configuration not stated)", "values": [{"measurement": "IC50", "result": "> 10", "unit": "µM"}, {"measurement": "IC90", "result": "> 10", "unit": "µM"}]}
{"smiles": "COC(=O)c1cc(C(=O)OC)cc(-n2c(C)cc(C(O)(C(=O)OC)C(F)(F)F)c2C)c1", "note": "(configuration not stated)", "values": [{"measurement": "IC50", "result": "> 10", "unit": "µM"}, {"measurement": "IC90", "result": "> 10", "unit": "µM"}]}
{"smiles": "Cn1/c(=N/N=C2\\C(=O)N(Cc3ccccc3)c3ccccc32)sc2ccccc21", "values": [{"measurement": "IC50", "result": "> 10", "unit": "µM"}, {"measurement": "IC90", "result": "> 10", "unit": "µM"}]}
{"smiles": "CCN(CC)S(=O)(=O)c1ccc(N/N=C2/C=CC(=O)c3ncccc32)cc1", "values": [{"measurement": "IC50", "result": "> 10", "unit": "µM"}, {"measurement": "IC90", "result": "> 10", "unit": "µM"}]}
{"smiles": "COc1ccc(-c2nn(-c3ccccc3)cc2C(=O)Nc2cc(C(F)(F)F)ccc2N2CCCCC2)cc1", "values": [{"measurement": "IC50", "result": "> 10", "unit": "µM"}, {"measurement": "IC90", "result": "> 10", "unit": "µM"}]}
{"smiles": "CCN(CC)S(=O)(=O)c1cccc(-c2nnc(SCC(=O)N3CCc4ccccc43)n2-c2ccccc2)c1", "values": [{"measurement": "IC50", "result": "> 10", "unit": "µM"}, {"measurement": "IC90", "result": "> 10", "unit": "µM"}]}
{"smiles": "Cc1c(-c2cccc(Cl)c2)nc2ccccc2c1C(=O)OCC(=O)C(C#N)=C1Nc2ccccc2N1", "values": [{"measurement": "IC50", "result": "> 10", "unit": "µM"}, {"measurement": "IC90", "result": "> 10", "unit": "µM"}]}
{"smiles": "CCOC(=O)c1cc(N/N=C(/C(=O)Nc2cccnc2)C(=O)c2ccccc2)cc(C(=O)OCC)c1", "values": [{"measurement": "IC50", "result": "> 10", "unit": "µM"}, {"measurement": "IC90", "result": "> 10", "unit": "µM"}]}
{"smiles": "O=C(NC(=S)NN(C(=S)NC(=O)c1ccccc1Br)c1nc2ccccc2[nH]1)c1ccccc1Br", "values": [{"measurement": "IC50", "result": "> 10", "unit": "µM"}, {"measurement": "IC90", "result": "> 10", "unit": "µM"}]}
{"smiles": "CCn1c2ccccc2c2cc(/C=C(\\C#N)c3nnc(N4CCOCC4)n3-c3ccccc3)ccc21", "values": [{"measurement": "IC50", "result": "> 10", "unit": "µM"}, {"measurement": "IC90", "result": "> 10", "unit": "µM"}]}
{"smiles": "CC(C(=O)OCC(=O)Nc1ccc(Cl)c2c1C(=O)c1ccccc1C2=O)N1C(=O)c2ccccc2C1=O", "note": "(configuration not stated)", "values": [{"measurement": "IC50", "result": "> 10", "unit": "µM"}, {"measurement": "IC90", "result": "> 10", "unit": "µM"}]}
{"smiles": "CCOc1ccccc1N/C=C1/C(=O)N(Cc2ccc3c(c2)OCO3)C(=O)c2ccccc21", "values": [{"measurement": "IC50", "result": "> 10", "unit": "µM"}, {"measurement": "IC90", "result": "> 10", "unit": "µM"}]}
{"smiles": "CSCCC(C(=O)Oc1c(Cl)cc(Cl)c2ccc(C)nc12)N1C(=O)c2ccccc2C1=O", "note": "(configuration not stated)", "values": [{"measurement": "IC50", "result": "> 10", "unit": "µM"}, {"measurement": "IC90", "result": "> 10", "unit": "µM"}]}
{"smiles": "Cc1cc(C=C2Sc3ccc4ccccc4c3N2C)cc(C)[n+]1Cc1cccnc1", "values": [{"measurement": "IC50", "result": "> 10", "unit": "µM"}, {"measurement": "IC90", "result": "> 10", "unit": "µM"}]}
{"smiles": "CCN1C/C(=C/c2ccc(NC(C)=O)cc2)C(=O)/C(=C/c2ccc(NC(C)=O)cc2)C1", "values": [{"measurement": "IC50", "result": "> 10", "unit": "µM"}, {"measurement": "IC90", "result": "> 10", "unit": "µM"}]}
{"smiles": "Cc1nn2c(nc(Sc3nc4ccccc4o3)c3ccccc32)c1/C=N/NC(=O)c1cccc(S(=O)(=O)N2CCOCC2)c1", "values": [{"measurement": "IC50", "result": "> 10", "unit": "µM"}, {"measurement": "IC90", "result": "> 10", "unit": "µM"}]}
{"smiles": "Cc1cccn2c(=O)c(/C=N/O)c(Nc3ccc(SC(F)F)cc3)nc12", "values": [{"measurement": "IC50", "result": "> 10", "unit": "µM"}, {"measurement": "IC90", "result": "> 10", "unit": "µM"}]}
{"smiles": "O=C1C=C/C(=N/N(Cc2ccccc2)c2ccccc2)O1", "values": [{"measurement": "IC50", "result": "> 10", "unit": "µM"}, {"measurement": "IC90", "result": "> 10", "unit": "µM"}]}
{"smiles": "C/C(CCc1ccc2c(c1)OCO2)=N\\Nc1nc2ccccc2[nH]1", "values": [{"measurement": "IC50", "result": "> 10", "unit": "µM"}, {"measurement": "IC90", "result": "> 10", "unit": "µM"}]}
{"smiles": "O=C(Nc1ccc(C(OC(=O)c2ccccc2)(C(F)(F)F)C(F)(F)F)cc1)c1ccccc1", "values": [{"measurement": "IC50", "result": "> 10", "unit": "µM"}, {"measurement": "IC90", "result": "> 10", "unit": "µM"}]}
{"smiles": "CC12CC3CC(C1)CC(c1ccc(O)cc1)(C3)C2", "values": [{"measurement": "IC50", "result": "> 10", "unit": "µM"}, {"measurement": "IC90", "result": "> 10", "unit": "µM"}]}
